We go through 16 compounds from patent publication US20220160686A1, “MACROCYCLIC AZOLOPYRIDINE DERIVATIVES AS EED AND PRC2 MODULATORS” (Fulcrum Therapeutics, Inc., priority 2019, published 2022).

Where “and” joins values, the source holds several entries; their conditions need not be identical. Equal values may be shown once. Read-outs that look alike come from different tables or passages of the source.

Assay [1] concerns the target T1, biotinylated AVI-tagged EED (76-441) (Homo sapiens, UniProt O75530).
T1 construct: GST (N, cleaved yes); made in house; host or cells: E. coli BL21(DE3), co-expressed with pGro7
In words: EED binding SPR assay. To be noted: 1:1 binding model; read-out: KD, equilibrium dissociation constant as measured by surface plasmon resonance (SPR). The protocol: Biotinylated AVI-tagged EED was produced using standard molecular biology techniques. A pGEX plasmid with a GST-preScission-cleavage-site-AVI-EED(76-441) sequence was placed into E. coli BL21(DE3) cells and co-expressed with pGro7. The E. coli were grown in shaker flasks in LB with ampicillin at 37° C. at 110 rpm to an OD600=0.7. At this time the temperature was lowered to 15° C. and IPTG was added to 0.3 mM. The cells were allowed to express overnight. Cells were then harvested.
For purification, the E. coli cell pellet was lysed into a buffer of 50 mM Tris pH 8.0, 500 mM NaCl, 5% glycerol and 5 mM DTT. The lysate was loaded onto a GSTrap FF column from GE Healthcare. After washing, the bound protein was eluted with 50 mM Tris pH 8.0, 500 mM NaCl, 5% glycerol, 5 mM DTT and 15 mM GSH. The collected fractions were combined and incubated with PreScission enzyme overnight at 4° C. The cleaved protein was then passed through a GSTrap FF column in a buffer of 50 mM Tris pH 8.0, 500 mM NaCl, 5% glycerol and 5 mM DTT. The cleaved protein was confirmed through mass spectrometry. The AVI-EED(76-441) was then buffer exchanged into 50 mM Bicine pH 8.3, 10 mM ATP, 10 mM magnesium acetate and 50 μM D-Biotin. 3 mg of BirA enzyme was added to the system and incubated at 4° C. for 2 hours to biotinylate the AVI-EED(76-441). The biotinylated-AVI-EED(76-441) was then buffer exchanged into 20 mM Tris pH 8.0 and 400 mM NaCl and passed through a size exclusion column of Superdex 200 16/60 Increase. The purified monomeric biotinylated-AVI-EED(76-441) was confirmed through SDS-PAGE, LC-MS and analytical size exclusion chromatography.
All surface plasmon resonance (SPR) assays were performed using a GE Biacore S200 utilizing GE Biotin CAPture chips. Capturing of CAP reagents was performed with a flow rate of 2 μL/min for 90 seconds. For protein capturing, a solution of 50 μg/mL of biotinylated AVI-tagged EED (76-441) in 10 mM HEPES pH 7.4, 150 mM NaCl, 0.05% Tween 20 and 2% DMSO (Running Buffer) was flowed over the chip with a flow rate of 5 μL/min for a contact time of 30 seconds. Final readings were 2200-2400 RU. For compounds, 7 concentrations were made with 3-dilutions using the Running Buffer for a total of 300 μL of each concentration in a 96-well microplate. During the binding experiments, a flow rate of […] was used for an association time of 90 seconds followed by a disassociation time of 180 seconds. The compartment temperature was set at 10° C. with the chip at 25° C. During regeneration the flow rate was set to 30 μL/min for 30 seconds. All fittings were done using a 1:1 binding model.
(In general: SPR reads the build-up and loss of mass on a sensor chip optically.)

Assay [2] deals with human P-glycoprotein HEK cells (HEK-P-gp). The experiment in a line: H3K27me3 immunocytochemistry assay in P-gp expressing HEK293T cells, with or without elacridar. In kind it is cell-based. To be noted: Homo sapiens, 4 days compound treatment. A digest of the protocol:
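HEK293T stably expressing human ABCB1 (vinblastine-selected), 1000 cells/well, treated with serially diluted compound for 4 days at 37° C, with or without 250 nM elacridar. Fixed cells stained with anti-H3K27me3 plus Alexa 488 secondary and Hoechst; imaged at 10×, nuclei identified by Hoechst.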

Another assay addresses EZH2/PRC2 complex (Homo sapiens, UniProt O75530). In words: Histone methyltransferase assay (radioisotope-based HotSpot). In kind it is biochemical. As to conditions: EZH2/PRC2 complex 10 nM, core histone substrate 0.05 mg/ml, 3H-SAM 1 μM; read-out: IC50, inhibitory effects on the HMT enzyme. The protocol: Effect of compounds of the present disclosure on EZH2/PRC2 complex methyltransferase functional activity was measured using the radioisotope-based HotSpot assay described by Horiuchi, K. Y., et al. Assay Drug Dev Technol. 11(4):227-36 (2013). Briefly, compounds were prepared in a 10-point 3-fold serial dilution in DMSO from a 10 mM stock in ECHO qualified plate using Assist Plus (Integra Biosciences) liquid handler. […] Nanoliter quantities of each compound's concentration series were transferred into the enzyme/substrate mix using (Echo 550, LabCyte Inc. Sunnyvale, Calif.) acoustic dispenser and pre-incubated for 20 min at room temperature. The methylation reaction was initiated by the addition of 1 μl of 5 μM S-Adenosyl-L-[methyl-^3H]methionine (^3H-SAM) and incubated at 30° C. for 1 h. The final concentration of the EZH2/PRC2 complex, core histone substrate and ^3H-SAM were 10 nM, 0.05 mg/ml, and 1 μM respectively. The % activity of test samples were calculated with reference to positive (no compound) and negative (no EZH2/PRC2) controls on the plate using Excel (Microsoft). The resulting values were exported to Prism (GraphPad software) to generate concentration response curves and IC50 values using the four-parameter logistic equation.

[3] abbreviates: HEK293, 96 h, without elacridar, read-out: IC50, inhibitory activity on human P-glycoprotein HEK cells (HEK-P-gp).
The mark [4] stands for this setting: HEK293, with 250 nM elacridar, read-out: IC50, inhibitory activity on human P-glycoprotein HEK cells (HEK-P-gp) pretreated with elacridar.

T1 sequence (O75530 76-441 limits assumed): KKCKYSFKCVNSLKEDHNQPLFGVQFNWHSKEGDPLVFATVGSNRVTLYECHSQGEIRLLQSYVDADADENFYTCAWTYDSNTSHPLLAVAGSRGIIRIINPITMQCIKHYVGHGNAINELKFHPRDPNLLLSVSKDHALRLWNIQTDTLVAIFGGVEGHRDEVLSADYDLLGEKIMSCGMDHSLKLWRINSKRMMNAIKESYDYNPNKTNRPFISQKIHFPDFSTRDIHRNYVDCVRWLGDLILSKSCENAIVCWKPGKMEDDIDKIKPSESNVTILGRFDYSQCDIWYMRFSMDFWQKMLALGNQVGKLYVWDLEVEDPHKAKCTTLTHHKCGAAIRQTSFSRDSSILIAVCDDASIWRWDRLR
EZH2/PRC2 complex, sequence (O75530 whole entry): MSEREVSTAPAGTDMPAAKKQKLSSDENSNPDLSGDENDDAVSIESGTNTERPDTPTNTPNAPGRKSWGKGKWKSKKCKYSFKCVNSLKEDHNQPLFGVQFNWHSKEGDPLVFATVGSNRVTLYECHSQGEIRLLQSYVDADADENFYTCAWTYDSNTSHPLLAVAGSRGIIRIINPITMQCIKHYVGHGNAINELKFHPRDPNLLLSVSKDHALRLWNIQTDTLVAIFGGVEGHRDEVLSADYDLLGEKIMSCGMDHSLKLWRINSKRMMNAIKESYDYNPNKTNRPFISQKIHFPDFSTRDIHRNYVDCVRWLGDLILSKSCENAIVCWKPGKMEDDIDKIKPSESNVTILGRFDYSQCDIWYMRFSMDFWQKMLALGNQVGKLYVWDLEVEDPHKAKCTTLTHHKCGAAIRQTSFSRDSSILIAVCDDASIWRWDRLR
EZH2/PRC2 complex, sequence (Q15910 whole entry partner): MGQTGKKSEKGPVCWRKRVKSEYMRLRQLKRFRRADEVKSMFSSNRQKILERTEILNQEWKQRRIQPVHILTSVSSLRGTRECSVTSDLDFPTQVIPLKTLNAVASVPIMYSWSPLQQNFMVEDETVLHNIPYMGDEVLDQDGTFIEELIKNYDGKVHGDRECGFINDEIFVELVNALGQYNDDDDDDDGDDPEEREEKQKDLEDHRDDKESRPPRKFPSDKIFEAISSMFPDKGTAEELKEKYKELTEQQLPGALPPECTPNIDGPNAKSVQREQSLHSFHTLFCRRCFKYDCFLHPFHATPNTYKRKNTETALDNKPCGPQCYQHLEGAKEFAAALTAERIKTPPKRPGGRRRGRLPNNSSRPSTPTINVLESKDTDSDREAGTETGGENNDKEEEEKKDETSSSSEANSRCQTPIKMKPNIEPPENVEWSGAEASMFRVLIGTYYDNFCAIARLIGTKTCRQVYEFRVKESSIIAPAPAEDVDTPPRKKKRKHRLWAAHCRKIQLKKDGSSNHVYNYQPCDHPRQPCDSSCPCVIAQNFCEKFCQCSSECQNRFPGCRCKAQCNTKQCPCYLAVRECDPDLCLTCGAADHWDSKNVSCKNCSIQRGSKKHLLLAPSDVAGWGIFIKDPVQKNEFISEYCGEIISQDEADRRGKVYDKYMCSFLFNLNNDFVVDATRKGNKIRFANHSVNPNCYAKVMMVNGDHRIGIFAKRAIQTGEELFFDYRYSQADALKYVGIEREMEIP
EZH2/PRC2 complex, sequence (Q15022 whole entry partner): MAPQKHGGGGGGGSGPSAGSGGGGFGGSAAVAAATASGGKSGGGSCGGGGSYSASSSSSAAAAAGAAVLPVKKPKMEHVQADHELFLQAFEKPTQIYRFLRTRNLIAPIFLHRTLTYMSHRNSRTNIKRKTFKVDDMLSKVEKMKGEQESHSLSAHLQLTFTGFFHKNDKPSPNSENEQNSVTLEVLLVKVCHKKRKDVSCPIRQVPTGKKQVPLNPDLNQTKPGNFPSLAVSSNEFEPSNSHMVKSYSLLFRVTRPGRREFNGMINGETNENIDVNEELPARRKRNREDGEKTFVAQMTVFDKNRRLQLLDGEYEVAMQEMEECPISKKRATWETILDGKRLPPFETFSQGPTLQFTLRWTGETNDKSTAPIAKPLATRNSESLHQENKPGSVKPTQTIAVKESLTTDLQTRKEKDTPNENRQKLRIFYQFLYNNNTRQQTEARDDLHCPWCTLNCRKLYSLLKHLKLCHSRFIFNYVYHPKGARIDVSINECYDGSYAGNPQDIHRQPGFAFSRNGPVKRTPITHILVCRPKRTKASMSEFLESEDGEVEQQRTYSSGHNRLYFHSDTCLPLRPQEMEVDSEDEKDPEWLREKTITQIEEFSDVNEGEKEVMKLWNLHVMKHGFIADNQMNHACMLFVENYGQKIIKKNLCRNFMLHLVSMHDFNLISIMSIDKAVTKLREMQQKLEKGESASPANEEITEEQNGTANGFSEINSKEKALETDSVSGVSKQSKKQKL

Consider `Cc1cc(-c2cc3c(n4cnnc24)NCc2c(F)ccc4c2[C@@H](CO4)CO3)ncn1` [Compound 161, (S)-12-fluoro-4-(6-methylpyrimidin-4-yl)-7a,8,13,14-tetrahydro-7H-[1,2,4]triazolo[4′,3′:1,6]pyrido[3,2-b]benzofuro[4,3-fg][1,4]oxazonine], for which the Kd (usually the equilibrium constant for the complex coming apart) in assay [1] lay in the range of 0.005 to 0.01 µM. In addition, the IC50 in assay [2] (setting [3]) and in assay [2] (setting [4]) was > 0.5 µM throughout.

Turning to `CN(C)c1ncc(-c2cc3c(n4cnnc24)NCc2c(F)ccc4c2[C@H](CO4)CO3)cn1` [Example 108], the Kd in assay [1] is < 0.0025 µM. Further, the IC50 in assay [2] (setting [3]) and in assay [2] (setting [4]) was > 0.5 µM throughout.

Consider `CC(=O)N1CC=C(c2cc3c(n4cnnc24)NCc2c(F)ccc4c2[C@@H](CO4)CO3)CC1` [Compound 193, (S)-1-(4-(12-fluoro-7a,8,13,14-tetrahydro-7H-[1,2,4]triazolo[4′,3′:1,6]pyrido[3,2-b]benzofuro[4,3-fg][1,4]oxazonin-4-yl)-3,6-dihydropyridin-1(2H)-yl)ethan-1-one], for which, in assay [1], the Kd is < 0.0025 µM. Further, the IC50 (usually the concentration at which inhibition is half-maximal) was in the range of 0.025 to 0.05 µM in assay [2] (setting [3]) and 0.05 to 0.1 µM in assay [2] (setting [4]).

Regarding `Cc1cn(C)c(-c2cc3c(n4cnnc24)NCc2c(F)ccc4c2C(CO4)CO3)n1` (stereo in doubt) [Compound 135, (S)-4-(1,4-dimethyl-1H-imidazol-2-yl)-12-fluoro-7a,8,13,14-tetrahydro-7H-[1,2,4]triazolo[4',3':1,6]pyrido]3,2-b]benzofuro[4,3-fg][1,4]oxazonine], the Kd in assay [1] is < 0.0025 µM. For the same compound, the IC50 in assay [2] (setting [3]) and in assay [2] (setting [4]) was 0.05 to 0.1 µM throughout.

For `Cn1ncc(O)c1-c1cc2c(n3cnnc13)NCc1c(F)ccc3c1C(CO3)CO2` [Compound 196, (S)-5-(12-fluoro-7a,8,13,14-tetrahydro-7H-[1,2,4]triazolo[4′,3′:1,6]pyrido[3,2-b]benzofuro[4,3-fg][1,4]oxazonin-4-yl)-1-methyl-1H-pyrazol-4-ol], the Kd in assay [1] was < 0.0025 µM. The results for the IC50 in assay [2] (setting [3]) and in assay [2] (setting [4]) were 0.025 to 0.05 µM and 0.05 to 0.1 µM, respectively.

As for `CC(=O)N1CCC(c2cc3c(n4cnnc24)NCc2c(F)cccc2COC3)CC1` [Compound 198, 1-(4-(12-fluoro-6,8,13,14-tetrahydro-[1,2,4]triazolo[4′,3′:1,6]pyrido[3,2-c]benzo[g][1,5]oxazonin-4-yl)piperidin-1-yl)ethan-1-one], the IC50 on EZH2/PRC2 complex is > 0.5 µM.

Take `Cc1ncccc1-c1cc2c(n3cc(C(=O)O)nc13)NCc1c(F)ccc3c1[C@@H](CO3)CO2` [Compound 177, (S)-5-fluoro-12-(2-methylpyridin-3-yl)-6,7,15,15a-tetrahydro-1H-benzofuro[4,3-fg]imidazo[r,2′:1,6]pyrido[3,2-b][1,4]oxazonine-10-carboxylic acid]: the Kd in assay [1] is 0.01 to 0.05 µM. The IC50 in assay [2] (setting [3]) and in assay [2] (setting [4]) was > 0.5 µM in each case.

As to `Cn1ncc(C#N)c1-c1cc2c(n3cnnc13)NCc1c(F)ccc3c1C(CO3)CO2` [Compound 170, (S)-5-(12-fluoro-7a,8,13,14-tetrahydro-7H-[1,2,4]triazolo[4′,3′:1,6]pyrido[3,2-b]benzofuro[4,3-fg][1,4]oxazonin-4-yl)-1-methyl-1H-pyrazole-4-carbonitrile], in assay [1], the Kd is < 0.0025 µM. Besides, the IC50 in assay [2] (setting [3]) and in assay [2] (setting [4]) was 0.1 to 0.5 µM in each case.

In the case of `Cc1ncc(O)cc1-c1cc2c(n3cnnc13)NCc1c(F)ccc3c1[C@@H](CO3)CO2` [Compound 194, (S)-5-(12-fluoro-7a,8,13,14-tetrahydro-7H-[1,2,4]triazolo[4′,3′:1,6]pyrido[3,2-b]benzofuro[4,3-fg][1,4]oxazonin-4-yl)-6-methylpyridin-3-ol], the Kd in assay [1] is < 0.0025 µM. Moreover, the IC50 in assay [2] (setting [3]) and in assay [2] (setting [4]) was 0.05 to 0.1 µM in each case.

For the compound `Cc1nc(C2CC2)ncc1-c1cc2c(n3cnnc13)NCc1c(F)ccc3c1[C@@H](CO3)CO2` [Compound 190, (S)-4-(2-cyclopropyl-4-methylpyrimidin-5-yl)-12-fluoro-7a,8,13,14-tetrahydro-7H-[1,2,4]triazolo[4′,3′:1,6]pyrido[3,2-b]benzofuro[4,3-fg][1,4]oxazonine], the Kd in assay [1] is < 0.0025 µM. Moreover, the IC50 in assay [2] (setting [3]) and in assay [2] (setting [4]) was < 0.025 µM throughout.

For `Cc1ncccc1-c1cc2c(n3cnnc13)NCc1c(F)ccc3c1[C@H](CO3)CO2` [Compound 185, (R)-12-fluoro-4-(2-methylpyridin-3-yl)-7a,8,13,14-tetrahydro-7H-[1,2,4]triazolo[4′,3′:1,6]pyrido[3,2-b]benzofuro[4,3-fg][1,4]oxazonine], the IC50 (on EZH2/PRC2 complex; in assay [2] (setting [3]); in assay [2] (setting [4])) was > 0.5 µM each time.

As for `Cc1ccnc(-c2cc3c(n4cnnc24)NCc2c(F)ccc4c2C(CO4)CO3)c1` (stereo in doubt) [Compound 149, (S)-12-fluoro-4-(4-methylpyridin-2-yl)-7a,8,13,14-tetrahydro-7H-[1,2,4]triazolo[4',3':1,6]pyrido]3,2-b]benzofuro[4,3-fg][1,4]oxazonine], the Kd in assay [1] lay in the range of 0.01 to 0.05 µM. The IC50 in assay [2] (setting [3]) and in assay [2] (setting [4]) was > 0.5 µM in each case.

Regarding `Cc1ccc(C(F)F)c(-c2cc3c(n4cnnc24)NCc2c(F)ccc4c2[C@@H](CO4)CO3)n1` [Compound 144], the Kd in assay [1] is 0.0025 to 0.005 µM. Besides, the IC50 in assay [2] (setting [3]) and in assay [2] (setting [4]) was 0.1 to 0.5 µM each time.

Take `COc1ccc(-c2cc3c(n4cnnc24)NCc2c(F)ccc4c2[C@H](CO4)CO3)c(C)n1` [Example 106]: the Kd in assay [1] was < 0.0025 µM. Also, the values for the IC50 in assay [2] (setting [3]) and in assay [2] (setting [4]) were 0.05 to 0.1 µM and 0.025 to 0.05 µM, respectively.

`CNC(=O)CCc1ccc(-c2cc3c(n4cnnc24)NCc2c(F)ccc4c2C(CO4)CO3)c(C)n1` [Compound 191, (S)-3-(5-(12-fluoro-7a,8,13,14-tetrahydro-7H-[1,2,4]triazolo[4′,3′:1,6]pyrido[3,2-b]benzofuro[4,3-fg][1,4]oxazonin-4-yl)-6-methylpyridin-2-yl)-N-methylpropanamide]: the Kd in assay [1] was < 0.0025 µM. Moreover, the results for the IC50 in assay [2] (setting [3]) and in assay [2] (setting [4]) were 0.05 to 0.1 µM and 0.1 to 0.5 µM, respectively.

As for `Cn1nc(O)cc1-c1cc2c(n3cnnc13)NCc1c(F)ccc3c1C(CO3)CO2` [Compound 197, (S)-5-(12-fluoro-7a,8,13,14-tetrahydro-7H-[1,2,4]triazolo[4′,3′:1,6]pyrido[3,2-b]benzofuro[4,3-fg][1,4]oxazonin-4-yl)-1-methyl-1H-pyrazol-3-ol], in assay [1], the Kd is 0.01 to 0.05 µM and < 0.0025 µM. Further, the figures for the IC50 in assay [2] (setting [3]) and in assay [2] (setting [4]) were < 0.025 µM and 0.05 to 0.1 µM, respectively.
